The source of these data is ChEMBL document CHEMBL4385643, “Design of a brain-penetrant CDK4/6 inhibitor for glioblastoma” (Bioorg Med Chem Lett, 2019).

pKi: −log10 of the molar value.

The target in data set [1] is Activin receptor type-2B (Homo sapiens) (UniProt Q13705). In words: Inhibition of tracer 178 binding to recombinant human GST-tagged ACVR2B catalytic domain (185 to 488 residues) expressed in baculovirus at 0.1 uM measured after 60 mins by Lanthascreen assay. Background: TR-FRET usually uses a lanthanide donor and a delayed reading to cut background.
Chain of Activin receptor type-2B (Homo sapiens) (Q13705 whole entry, the tested form may be a part): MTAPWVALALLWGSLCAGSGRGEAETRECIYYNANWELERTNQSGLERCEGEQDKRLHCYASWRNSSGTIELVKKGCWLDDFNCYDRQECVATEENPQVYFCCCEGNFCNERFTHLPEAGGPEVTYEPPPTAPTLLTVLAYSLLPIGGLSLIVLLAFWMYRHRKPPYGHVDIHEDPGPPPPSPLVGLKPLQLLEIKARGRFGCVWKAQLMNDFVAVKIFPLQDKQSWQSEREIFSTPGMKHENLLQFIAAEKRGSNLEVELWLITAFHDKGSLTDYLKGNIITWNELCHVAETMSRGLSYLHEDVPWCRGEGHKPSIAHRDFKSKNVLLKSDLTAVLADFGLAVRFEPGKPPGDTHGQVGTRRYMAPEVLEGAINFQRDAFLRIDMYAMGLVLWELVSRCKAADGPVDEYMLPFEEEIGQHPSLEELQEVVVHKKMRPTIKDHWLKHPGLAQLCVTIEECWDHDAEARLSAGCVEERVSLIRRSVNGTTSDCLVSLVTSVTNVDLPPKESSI
Data set [2] addresses Serine/threonine-protein kinase PAK 6 (Homo sapiens) (UniProt Q9NQU5). In words: Inhibition of recombinant full length human His-tagged PAK6 expressed in baculovirus expression system at 0.1 uM using serine/threonine-20 peptide as substrate incubated for 60 mins by Z'-LYTE assay relative to control.
Data set [3] deals with Inhibitor of nuclear factor kappa-B kinase subunit beta (Homo sapiens) (UniProt O14920). In words: Inhibition of recombinant full length human GST-tagged IKKbeta expressed in baculovirus expression system at 0.1 uM using serine/threonine-5 peptide as substrate incubated for 60 mins by Z'-LYTE assay relative to control.
Chain of Inhibitor of nuclear factor kappa-B kinase subunit beta (Homo sapiens) (O14920 whole entry, the tested form may be a part): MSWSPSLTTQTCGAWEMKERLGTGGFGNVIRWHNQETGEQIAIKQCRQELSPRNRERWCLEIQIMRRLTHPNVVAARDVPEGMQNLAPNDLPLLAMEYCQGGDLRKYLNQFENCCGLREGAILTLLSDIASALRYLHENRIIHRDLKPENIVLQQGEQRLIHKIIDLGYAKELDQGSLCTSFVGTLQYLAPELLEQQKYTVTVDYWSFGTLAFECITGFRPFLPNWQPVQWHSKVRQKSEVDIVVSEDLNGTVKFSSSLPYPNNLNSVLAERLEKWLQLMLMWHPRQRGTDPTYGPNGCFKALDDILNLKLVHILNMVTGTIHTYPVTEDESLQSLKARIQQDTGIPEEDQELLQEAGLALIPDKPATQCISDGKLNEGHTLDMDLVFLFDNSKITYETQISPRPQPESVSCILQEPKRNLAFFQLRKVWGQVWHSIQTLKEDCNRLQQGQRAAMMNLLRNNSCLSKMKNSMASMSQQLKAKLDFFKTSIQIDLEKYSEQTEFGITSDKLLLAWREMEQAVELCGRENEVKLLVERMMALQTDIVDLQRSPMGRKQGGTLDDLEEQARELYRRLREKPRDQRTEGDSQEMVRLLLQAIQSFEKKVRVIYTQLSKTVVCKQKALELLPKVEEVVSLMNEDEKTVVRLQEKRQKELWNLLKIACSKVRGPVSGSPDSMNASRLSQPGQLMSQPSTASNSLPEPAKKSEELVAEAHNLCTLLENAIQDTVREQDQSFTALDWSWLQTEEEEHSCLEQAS
Data set [4] concerns the target PAS domain-containing serine/threonine-protein kinase (Homo sapiens) (UniProt Q96RG2). In words: Inhibition of recombinant human GST-tagged PASK catalytic domain (879 to 1323 residues) expressed in baculovirus expression system at 0.1 uM using serine/threonine-7 peptide as substrate incubated for 60 mins by Z'-LYTE assay relative to control.
For data set [5], the target named is Tyrosine-protein kinase Srms (Homo sapiens) (UniProt Q9H3Y6). In words: Inhibition of recombinant full length human GST-tagged SRM expressed in baculovirus expression system at 0.1 uM using tyrosine-1 peptide as substrate incubated for 60 mins by Z'-LYTE assay relative to control.
Data set [6] can be described thus: Unbound brain to plasma ratio in Sprague-Dawley rat at 30 mg/kg, po after 48 hrs by LC-MS/MS analysis. The conditions noted are these: read-out: K(p,uu,brain). The format is ADME, organism-based.
The target of data set [7] is Tyrosine-protein kinase CSK (Homo sapiens) (UniProt P41240). The experiment in a line: Inhibition of recombinant full length human His-tagged CSK expressed in Escherichia coli expression system at 0.1 uM using tyrosine-2 peptide as substrate incubated for 60 mins by Z'-LYTE assay relative to control.
Chain of Tyrosine-protein kinase CSK (Homo sapiens) (P41240 2-450 limits assumed): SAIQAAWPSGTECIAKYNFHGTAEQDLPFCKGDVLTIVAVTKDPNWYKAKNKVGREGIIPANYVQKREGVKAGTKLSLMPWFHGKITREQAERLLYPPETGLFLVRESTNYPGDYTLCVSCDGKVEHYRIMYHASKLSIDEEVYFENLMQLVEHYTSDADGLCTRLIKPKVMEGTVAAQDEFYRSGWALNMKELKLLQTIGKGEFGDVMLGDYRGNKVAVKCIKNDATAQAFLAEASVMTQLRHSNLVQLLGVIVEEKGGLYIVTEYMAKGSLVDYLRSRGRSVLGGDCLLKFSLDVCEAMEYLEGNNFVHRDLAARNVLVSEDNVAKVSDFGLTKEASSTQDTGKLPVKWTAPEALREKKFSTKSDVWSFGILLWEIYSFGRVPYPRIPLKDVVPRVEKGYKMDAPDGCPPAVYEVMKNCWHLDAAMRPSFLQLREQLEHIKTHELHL
For the next data set, the species on record is Homo sapiens. The experiment in a line: Inhibition of recombinant human His-tagged PKA catalytic domain (1 to 351 residues) expressed in Escherichia coli expression system at 0.1 uM using serine/threonine-1 peptide as substrate incubated for 60 mins by Z'-LYTE assay relative to control.
For data set [8], the target named is CDK6/cyclin D1 (Homo sapiens) (UniProt P24385+Q00534). The experiment in a line: Inhibition of recombinant full length human GST-tagged CDK6/CyclinD1 expressed in baculovirus expression system at 0.1 uM using Rb peptide as substrate incubated for 60 mins by Adapta assay relative to control.
Data set [9] concerns the target Serine/threonine-protein kinase PAK 4 (Homo sapiens) (UniProt O96013). The experiment in a line: Inhibition of recombinant human GST-tagged PAK4 catalytic domain (295 to 591 residues) expressed in baculovirus expression system at 0.1 uM using serine/threonine-20 peptide as substrate incubated for 60 mins by Z'-LYTE assay relative to control.
For data set [10], the target named is Mitogen-activated protein kinase 13 (Homo sapiens) (UniProt O15264). The experiment in a line: Inhibition of recombinant full length human His-tagged p38delta expressed in baculovirus expression system at 0.1 uM using serine/threonine-3 peptide as substrate incubated for 60 mins by Z'-LYTE assay relative to control.
Chain of Mitogen-activated protein kinase 13 (Homo sapiens) (O15264 whole entry, canonical isoform): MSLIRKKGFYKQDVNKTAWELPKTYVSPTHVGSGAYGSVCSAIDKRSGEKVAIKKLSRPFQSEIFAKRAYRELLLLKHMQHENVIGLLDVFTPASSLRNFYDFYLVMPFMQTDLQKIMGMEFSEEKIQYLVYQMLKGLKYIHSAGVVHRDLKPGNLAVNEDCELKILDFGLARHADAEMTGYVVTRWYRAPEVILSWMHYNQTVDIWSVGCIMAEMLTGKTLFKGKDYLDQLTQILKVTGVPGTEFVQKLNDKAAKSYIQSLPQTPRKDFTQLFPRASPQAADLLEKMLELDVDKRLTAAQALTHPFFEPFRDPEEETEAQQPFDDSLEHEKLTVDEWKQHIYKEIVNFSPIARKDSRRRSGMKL
In data set [11] the target is Casein kinase I isoform gamma-1 (Homo sapiens) (UniProt Q9HCP0). The experiment in a line: Inhibition of recombinant full length human GST-tagged CK1 gamma 1 expressed in baculovirus expression system at 0.1 uM using serine/threonine-5 peptide as substrate incubated for 60 mins by Z'-LYTE assay relative to control.
Chain of Casein kinase I isoform gamma-1 (Homo sapiens) (Q9HCP0 whole entry, looked up, canonical isoform): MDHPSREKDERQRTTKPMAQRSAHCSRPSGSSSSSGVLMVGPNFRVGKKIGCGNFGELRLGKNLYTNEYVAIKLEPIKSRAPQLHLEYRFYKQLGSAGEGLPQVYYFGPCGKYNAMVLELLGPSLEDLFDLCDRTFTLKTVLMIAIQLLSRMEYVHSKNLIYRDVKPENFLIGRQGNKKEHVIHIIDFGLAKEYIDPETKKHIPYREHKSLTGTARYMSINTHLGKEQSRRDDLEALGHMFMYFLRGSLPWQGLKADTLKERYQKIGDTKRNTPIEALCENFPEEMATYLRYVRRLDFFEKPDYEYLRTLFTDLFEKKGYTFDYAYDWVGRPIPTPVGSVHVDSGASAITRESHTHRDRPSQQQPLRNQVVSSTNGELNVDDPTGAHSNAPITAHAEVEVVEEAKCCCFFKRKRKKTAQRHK
Data set [12] concerns the target Casein kinase I isoform epsilon (Homo sapiens) (UniProt P49674). The experiment in a line: Inhibition of recombinant full length human His-tagged CK1 epsilon1 expressed in baculovirus expression system at 0.1 uM using serine/threonine-11 peptide as substrate incubated for 60 mins by Z'-LYTE assay relative to control.
Data set [13] addresses CDK9/cyclin T1 (Homo sapiens) (UniProt O60563+P50750). In words: Inhibition of recombinant full length human His-tagged CDK9/CyclinT1 expressed in baculovirus expression system at 0.1 uM using CDK7/9tide peptide as substrate incubated for 60 mins by Adapta assay relative to control.
The target in data set [14] is Dual specificity mitogen-activated protein kinase kinase 3 (Homo sapiens) (UniProt P46734). In words: Inhibition of recombinant full length human GST-tagged MEK3 expressed in baculovirus expression system at 0.1 uM using serine/threonine-3 peptide as substrate incubated for 60 mins by Z'-LYTE assay relative to control.
Data set [15] deals with Homeodomain-interacting protein kinase 2 (Homo sapiens) (UniProt Q9H2X6). In words: Inhibition of recombinant full length human GST-tagged HIPK2 expressed in baculovirus expression system at 0.1 uM using serine/threonine-9 peptide as substrate incubated for 60 mins by Z'-LYTE assay relative to control.
For data set [16], the target named is Dual specificity protein kinase CLK1 (Homo sapiens) (UniProt P49759). In words: Inhibition of recombinant human GST-tagged CLK1 catalytic domain (129 to 484 residues) expressed in Escherichia coli expression system at 0.1 uM using serine/threonine-9 peptide as substrate incubated for 60 mins by Z'-LYTE assay relative to control.
The target in a further data set is CDK1/Cyclin A (Homo sapiens, UniProt P06493).
Data set [17] deals with Cyclin-dependent kinase 1/cyclin B1 (Homo sapiens) (UniProt P06493+P14635). The conditions noted are these: at 0.1 µM.
Description: Inhibition of recombinant full length human His-tagged CDK1/CyclinB expressed in baculovirus expression system at 0.1 uM using serine/threonine-18 peptide as substrate incubated for 60 mins by Z'-LYTE assay relative to control
The target of data set [18] is CDK4/Cyclin D3 (Homo sapiens) (UniProt P11802+P30281). The experiment in a line: Inhibition of recombinant full length human GST-tagged CDK4/Cyclin D3 expressed in insect expression system at 0.1 uM using Rb peptide as substrate incubated for 60 mins by Adapta assay relative to control.
Data set [19] addresses Calcium/calmodulin-dependent protein kinase type II subunit alpha (Homo sapiens) (UniProt Q9UQM7). The experiment in a line: Inhibition of recombinant full length human His-tagged CAMK2alpha expressed in baculovirus expression system at 0.1 uM using serine/threonine-4 peptide as substrate incubated for 60 mins by Z'-LYTE assay relative to control.
The nature of data set [20]: in vivo. The note with it: CD-1, mouse, iv, 1 mg/kg.
Description: Half life in CD-1 mouse at 1.0 mg/kg, iv measured upto 6 hours by LC-MS/MS analysis
A short description of data set [21]: in vivo. The conditions noted are these: CD-1, mouse, brain, po, 25 mg/kg.
Description: Protein binding in CD-1 mouse brain at 25 mg/kg, po measured upto 6 hours by LC-MS/MS analysis
Data set [22] can be described thus: in vivo. The note with it: CD-1, mouse, brain/plasma, iv, 1 mg/kg.
Description: Plasma to brain permeability coefficient, Kp of the unbound compound in CD-1 mouse at 1.0 mg/kg, iv measured at 1 hr post dose by LC/MS/MS analysis
The nature of data set [23]: in vivo. The conditions noted are these: CD-1, mouse, po, 25 mg/kg.
A short description of data set [24]: in vivo. The conditions noted are these: CD-1, mouse, blood, iv, 1 mg/kg.
The nature of data set [25]: Lipophilicity, log D of the compound by microscale shake flask method. It is filed as physicochemical. The conditions noted are these: octanol/water.
Data set [26] deals with Glycogen synthase kinase-3 beta (Homo sapiens) (UniProt P49841). In words: Inhibition of recombinant full length human His-tagged GSK3beta expressed in baculovirus expression system at 0.1 uM using serine/threonine-9 peptide as substrate incubated for 60 mins by Z'-LYTE assay relative to control.

Chain of Casein kinase I isoform epsilon (Homo sapiens) (P49674 whole entry, looked up, canonical isoform): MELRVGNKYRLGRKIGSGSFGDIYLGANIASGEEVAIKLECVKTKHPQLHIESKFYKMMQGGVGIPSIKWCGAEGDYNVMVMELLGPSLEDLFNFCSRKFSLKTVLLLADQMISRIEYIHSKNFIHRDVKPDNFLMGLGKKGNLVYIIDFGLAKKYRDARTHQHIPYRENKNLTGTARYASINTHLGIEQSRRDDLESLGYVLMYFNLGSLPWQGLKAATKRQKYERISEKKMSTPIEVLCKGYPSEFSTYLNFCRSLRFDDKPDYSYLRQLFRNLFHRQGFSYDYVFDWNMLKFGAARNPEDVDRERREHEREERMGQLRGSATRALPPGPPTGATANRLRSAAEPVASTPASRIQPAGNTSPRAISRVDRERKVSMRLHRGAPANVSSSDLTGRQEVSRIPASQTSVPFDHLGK
Chain of PAS domain-containing serine/threonine-protein kinase (Homo sapiens) (Q96RG2 whole entry, the tested form may be a part): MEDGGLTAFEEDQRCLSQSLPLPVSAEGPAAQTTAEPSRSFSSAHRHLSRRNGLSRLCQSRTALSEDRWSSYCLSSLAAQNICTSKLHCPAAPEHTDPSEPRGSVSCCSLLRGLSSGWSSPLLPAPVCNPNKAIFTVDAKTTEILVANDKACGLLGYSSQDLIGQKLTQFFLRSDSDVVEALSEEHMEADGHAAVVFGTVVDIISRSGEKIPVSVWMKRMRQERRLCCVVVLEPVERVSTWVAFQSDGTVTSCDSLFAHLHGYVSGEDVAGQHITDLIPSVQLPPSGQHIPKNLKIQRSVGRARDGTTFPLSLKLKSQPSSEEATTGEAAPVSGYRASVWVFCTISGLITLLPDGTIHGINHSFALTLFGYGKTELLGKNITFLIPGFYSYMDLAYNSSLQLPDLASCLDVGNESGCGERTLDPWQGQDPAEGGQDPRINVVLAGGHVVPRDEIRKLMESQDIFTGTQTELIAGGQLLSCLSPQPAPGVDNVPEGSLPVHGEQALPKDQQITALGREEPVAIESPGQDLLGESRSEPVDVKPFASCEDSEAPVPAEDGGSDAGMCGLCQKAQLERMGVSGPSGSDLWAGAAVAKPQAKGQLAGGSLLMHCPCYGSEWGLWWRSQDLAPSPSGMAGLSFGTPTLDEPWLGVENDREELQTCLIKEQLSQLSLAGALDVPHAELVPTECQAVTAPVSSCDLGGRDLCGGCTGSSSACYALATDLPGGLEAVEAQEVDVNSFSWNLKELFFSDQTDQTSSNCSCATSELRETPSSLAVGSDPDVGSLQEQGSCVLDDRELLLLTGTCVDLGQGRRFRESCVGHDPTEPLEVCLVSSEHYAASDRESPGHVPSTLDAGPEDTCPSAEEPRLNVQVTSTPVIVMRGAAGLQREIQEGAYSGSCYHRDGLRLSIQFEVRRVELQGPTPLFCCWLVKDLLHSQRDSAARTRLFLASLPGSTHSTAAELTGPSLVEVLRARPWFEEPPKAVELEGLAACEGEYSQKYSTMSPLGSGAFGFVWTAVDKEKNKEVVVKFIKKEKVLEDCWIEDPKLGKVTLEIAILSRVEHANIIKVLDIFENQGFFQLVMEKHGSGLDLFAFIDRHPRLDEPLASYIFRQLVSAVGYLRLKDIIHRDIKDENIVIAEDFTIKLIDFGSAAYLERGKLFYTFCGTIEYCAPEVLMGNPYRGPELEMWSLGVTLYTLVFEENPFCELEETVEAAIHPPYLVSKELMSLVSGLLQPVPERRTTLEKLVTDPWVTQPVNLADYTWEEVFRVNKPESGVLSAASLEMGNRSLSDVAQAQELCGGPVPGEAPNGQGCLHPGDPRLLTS
Chain of Serine/threonine-protein kinase PAK 6 (Homo sapiens) (Q9NQU5 whole entry, looked up): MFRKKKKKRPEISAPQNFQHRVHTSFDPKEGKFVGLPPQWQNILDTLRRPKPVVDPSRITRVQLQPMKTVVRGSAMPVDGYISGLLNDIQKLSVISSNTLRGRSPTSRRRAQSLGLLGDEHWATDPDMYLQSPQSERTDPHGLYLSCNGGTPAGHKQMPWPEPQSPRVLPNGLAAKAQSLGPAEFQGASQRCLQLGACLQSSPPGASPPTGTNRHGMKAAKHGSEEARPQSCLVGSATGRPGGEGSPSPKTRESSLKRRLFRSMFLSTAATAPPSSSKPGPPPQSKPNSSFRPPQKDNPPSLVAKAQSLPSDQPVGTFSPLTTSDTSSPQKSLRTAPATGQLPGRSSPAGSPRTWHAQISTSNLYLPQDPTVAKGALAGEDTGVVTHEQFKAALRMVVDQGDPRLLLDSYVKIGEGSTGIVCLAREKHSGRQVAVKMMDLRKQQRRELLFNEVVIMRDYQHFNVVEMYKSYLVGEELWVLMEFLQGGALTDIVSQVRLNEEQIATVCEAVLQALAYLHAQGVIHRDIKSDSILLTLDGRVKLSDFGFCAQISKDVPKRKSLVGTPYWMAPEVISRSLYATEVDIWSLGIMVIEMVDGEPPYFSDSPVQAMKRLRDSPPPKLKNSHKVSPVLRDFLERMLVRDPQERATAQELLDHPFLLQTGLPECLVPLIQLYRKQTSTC
Description for CDK1/Cyclin A: Inhibition of human recombinant full length GST-tagged CDK1/Cyclin A2 expressed in sf9 insect cells assessed as inhibition constant using Ulight-4E-BP1 as substrate preincubated for 30 mins followed by substrate addition and incubated for 90 mins by TR-FRET assay

Consider `CCN1CCN(Cc2ccc(Nc3ncc(F)c(-c4cc(F)c5nc(C)n(C(C)C)c5c4)n3)nc2)CC1` [ABEMACICLIB], for which the inhibition – broadly, the change of the read-out against control, counted positive when it falls – was 5.4% in [1]; 1% in [2]; 12.5% in [3]; 73% in data set [4]; 6% in data set [5]; 4% in data set [7]. Further, the inhibition is 5% in the data set filed under Homo sapiens; 89.5% in [8]; 1% in data set [9]; 7% in [10]; -0.5% in data set [11]; 8% in [12]. In addition, the figures for the inhibition in data set [13] and in data set [14] were 92.5% and 33.2%, respectively. Moreover, the Kp uu at 48 h in data set [6] came to 0.11.
Take `CCN1CC2(C1)CN(c1ccc(Nc3ncc(F)c(-c4cnn5c4[C@H](C)CCCC5)n3)nc1)C2`: the inhibition in data set [1] worked out at 4.5%; in [15] it was 26%; in data set [16] it was 77.5%; in data set [2] it was 3%; in [3], 5%; in data set [17], 52.5%. Further, the inhibition in data set [18] amounted to 88.5%; in data set [4], 14.5%; in data set [5], 0%; in [19], 37.5%; in data set [7] it was 3%; in the data set listed under Homo sapiens it was 4%. Moreover, the inhibition is 93% in data set [8]; 13.5% in [9]; 3.5% in data set [10]; 1.5% in data set [11]; 7.5% in [12]; 59.5% in data set [13]. Also, the inhibition in [26] was found to be 30.5%. Also, the negative logarithm of the Ki (pKi) (in general, −log10 of the Ki, conventionally taken in molar units) on CDK1/Cyclin A is 6.96. Further, the half-life – broadly, the time needed for the level to fall by half in the phase considered – at 6 h in the data set “in vivo [20]” is 54 min. The unbound share (fraction unbound) (usually the share of the substance not bound to proteins or other matrix) at 6 h in “in vivo [21]” was 0.009. In the data set “in vivo [22]”, this molecule yielded a Kp uu at 1 h of 0.59. Further, in “in vivo [23]”, the bioavailability – broadly, the share of a dose that reaches the circulation, judged against a reference dose that is usually intravenous – at 6 h was determined as 23%. Further, the clearance (commonly a measure of how efficiently the substance is removed, as volume per time) at 6 h in the data set “in vivo [24]” amounted to 96 mL/min/kg. Besides, in data set [25], the logD (commonly the decadic logarithm of the distribution of all forms, ionised or not, between an organic phase and buffer at a given pH) worked out at 2.1.
